Source: patent US20170008928A1, “NOVEL PEPTIDES AND PEPTIDE DERIVATIVES AND USES THEREOF” (Novo Nordisk A/S, priority 2015, published 2017)
Like-named read-outs stand apart in the source and are kept apart here. Starred links: 1 amine or outer side, 2 acyl side, 3 side chain; linkers in the order of their positions; H or OH if unused. Non-standard residues stand in square brackets, D forms with d. Residues, ends and D or L forms follow the SMILES beside them. *: point of attachment. Phe(4-CH2SO3H) = N[C@@H](Cc1ccc(CS(=O)(=O)O)cc1)C(=O)O; C20 diacid = O=C(O)CCCCCCCCCCCCCCCCCCC(=O)*; sY = N[C@@H](Cc1ccc(OS(=O)(=O)O)cc1)C(=O)O; C18 diacid = O=C(O)CCCCCCCCCCCCCCCCC(=O)*; γGlu = O=C(O)[C@H](CCC(=O)[*:2])N[*:1]; 1Nal = N[C@@H](Cc1cccc2ccccc12)C(=O)O; C14 diacid = O=C(O)CCCCCCCCCCCCC(=O)*; NMeF = CN[C@@H](Cc1ccccc1)C(=O)O; dNMeD = CN[C@H](CC(=O)O)C(=O)O; Nle = CCCC[C@H](N)C(=O)O; AEEA = NCCOCCOCC(=O)O

Columns and labels:
[1] = biological target: T1, human cholecystokinin-2 receptor (CCK-2R) (Homo sapiens, UniProt P32239); assay: In vitro potency on CCK-2R, whole cell functional assay (IP1 accumulation, IP-One HTRF); assay type: cell-based
T1 construct: host or cells: 1321-N1 cells (plasma membranes prepared by Evotec AG Hamburg)
T1 sequence (P32239 1-447): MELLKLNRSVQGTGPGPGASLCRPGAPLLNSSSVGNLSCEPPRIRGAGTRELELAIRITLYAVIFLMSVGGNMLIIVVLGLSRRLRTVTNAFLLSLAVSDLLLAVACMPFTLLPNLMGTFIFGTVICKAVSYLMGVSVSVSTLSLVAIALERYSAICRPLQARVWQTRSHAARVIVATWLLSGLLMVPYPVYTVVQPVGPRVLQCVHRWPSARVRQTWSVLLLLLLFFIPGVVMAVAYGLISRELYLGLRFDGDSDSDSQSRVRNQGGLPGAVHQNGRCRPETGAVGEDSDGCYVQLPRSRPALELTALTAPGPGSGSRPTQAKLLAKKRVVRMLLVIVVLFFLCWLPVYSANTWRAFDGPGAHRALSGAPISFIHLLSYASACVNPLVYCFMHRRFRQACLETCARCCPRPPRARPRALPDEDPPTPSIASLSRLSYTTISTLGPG

[2] = biological target: T1, human cholecystokinin-2 receptor (CCK-2R); assay: In vitro receptor binding to CCK-2R, SPA displacement of [125I]-CCK-8s from plasma membranes
[3] = biological target: T2, human cholecystokinin-1 receptor (CCK-1R) (Homo sapiens, UniProt P32238); assay: In vitro receptor binding to CCK-1R, SPA displacement of [125I]-CCK-8s from plasma membranes
T2 construct: host or cells: 1321-N1 cells
T2 sequence (P32238 1-428): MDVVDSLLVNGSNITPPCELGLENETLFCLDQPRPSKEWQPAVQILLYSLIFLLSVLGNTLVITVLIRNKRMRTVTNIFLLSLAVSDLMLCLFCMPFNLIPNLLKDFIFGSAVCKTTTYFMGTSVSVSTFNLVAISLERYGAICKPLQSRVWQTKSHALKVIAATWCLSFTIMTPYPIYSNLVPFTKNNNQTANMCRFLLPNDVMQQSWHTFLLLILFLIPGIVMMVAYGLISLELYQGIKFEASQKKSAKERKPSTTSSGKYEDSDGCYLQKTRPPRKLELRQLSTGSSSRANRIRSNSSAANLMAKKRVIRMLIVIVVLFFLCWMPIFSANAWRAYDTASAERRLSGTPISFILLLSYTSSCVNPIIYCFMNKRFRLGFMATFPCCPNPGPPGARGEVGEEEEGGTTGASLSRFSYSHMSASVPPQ

[4] = biological target: T2, human cholecystokinin-1 receptor (CCK-1R); assay: In vitro potency on CCK-1R, whole cell functional assay (IP1 accumulation, IP-One HTRF); assay type: cell-based
[5] = 1321-N1 cells stably expressing CCK-2R, IP1 accumulation, highest dose tested 1×10^6 pM, read-out: EC50 (CCK-2R)
[6] = displacement of [125I]-CCK-8s, plasma membranes of 1321-N1 cells expressing CCK-2R, highest dose tested 1×10^7 pM, read-out: IC50 (CCK-2R)
[7] = displacement of [125I]-CCK-8s, plasma membranes of 1321-N1 cells expressing CCK-1R, read-out: IC50 (CCK-1R)

| SMILES | EC50 [1, 5] [nM] | IC50 [2, 6] [nM] | IC50 [3, 7] [nM] | other results |
| --- | --- | --- | --- | --- |
| CCCC[C@H](NC(=O)[C@H](Cc1ccc(OS(=O)(=O)O)cc1)NC(=O)[C@H](CC(=O)O)NC(=O)COCCOCCNC(=O)COCCOCCNC(=O)CC[C@H](NC(=O)CCCCCCCCCCCCCCCCC(=O)O)C(=O)O)C(=O)NCC(=O)N[C@@H](Cc1c[nH]c2ccccc12)C(=O)N[C@@H](CCCC)C(=O)N(C)[C@H](CC(=O)O)C(=O)N[C@@H](Cc1cccc2ccccc12)C(N)=O [Example 2, 2-[2-[2-[[2-[2-[2-[[(4S)-4-Carboxy-4-(17-carboxyheptadecanoylamino)butanoyl]amino]ethoxy]ethoxy]acetyl]amino]ethoxy]ethoxy]acetyl-Asp-sTyr-Nle-Gly-Trp-Nle-DMeAsp-1Nal-amide] ({C18 diacid-γGlu-AEEA-AEEA}-D[sY][Nle]GW[Nle][dNMeD][1Nal]-NH2) | 180 | 1000 | 0.13 | – |
| CCCC[C@H](NC(=O)[C@H](Cc1ccc(CS(=O)(=O)O)cc1)NC(=O)[C@H](CC(=O)O)NC(=O)COCCOCCNC(=O)COCCOCCNC(=O)CC[C@H](NC(=O)CCCCCCCCCCCCCCCCC(=O)O)C(=O)O)C(=O)NCC(=O)N[C@@H](Cc1c[nH]c2ccccc12)C(=O)N[C@@H](CCCC)C(=O)N(C)[C@H](CC(=O)O)C(=O)N(C)[C@@H](Cc1ccccc1)C(N)=O [Example 3, 2-[2-[2-[[2-[2-[2-[[(4S)-4-Carboxy-4-(17-carboxyheptadecanoylamino)butanoyl]amino]ethoxy]ethoxy]acetyl]amino]ethoxy]ethoxy]acetyl-Asp-Phe(4-sulfomethyl)-Nle-Gly-Trp-Nle-DMeAsp-MePhe-amide] ({C18 diacid-γGlu-AEEA-AEEA}-D[Phe(4-CH2SO3H)][Nle]GW[Nle][dNMeD][NMeF]-NH2) | – | – | – | EC50 [1]: > 1000 nM; IC50 [2]: > 10000 nM; IC50 [3]: 0.26 nM; EC50 [4]: 0.31 nM |
| CCCC[C@H](NC(=O)[C@H](Cc1c[nH]c2ccccc12)NC(=O)CNC(=O)[C@H](CC(C)C)NC(=O)[C@H](Cc1ccc(OS(=O)(=O)O)cc1)NC(=O)[C@H](CC(=O)O)NC(=O)[C@H](CO)NC(=O)[C@H](CO)NC(=O)CNC(=O)[C@H](CO)NC(=O)[C@H](CO)NC(=O)CNC(=O)CCCCCCCCCCCCCCCCC(=O)O)C(=O)N(C)[C@H](CC(=O)O)C(=O)N(C)[C@@H](Cc1ccccc1)C(N)=O [Example 29, 17-Carboxyheptadecanoyl-Gly-Ser-Ser-Gly-Ser-Ser-Asp-sTyr-Leu-Gly-Trp-Nle-DMeAsp-MePhe-amide] ({C18 diacid}-GSSGSSD[sY]LGW[Nle][dNMeD][NMeF]-NH2) | – | – | 0.072 | CCK-1R binding selectivity (IC50 (CCK-2R)/IC50 (CCK-1R)) ([3]; ratio of binding IC50 values, >1 = preference for CCK-1R): 5100; CCK-1R selectivity (EC50 (CCK-2R)/EC50 (CCK-1R)) ([4]; ratio of functional EC50 values, >1 = preference for CCK-1R): 28 |

More lines, main results first:

| EC50 [1, 5] [nM] | IC50 [2, 6] [nM] | IC50 [3, 7] [nM] | SMILES | other results |
| --- | --- | --- | --- | --- |
| > 1000 | > 10000 | – | CCCC[C@H](NC(=O)[C@H](Cc1c[nH]c2ccccc12)NC(=O)CNC(=O)[C@H](CC(C)C)NC(=O)[C@H](Cc1ccc(CS(=O)(=O)O)cc1)NC(=O)[C@H](CC(=O)O)NC(=O)COCCOCCNC(=O)COCCOCCNC(=O)CC[C@H](NC(=O)CCCCCCCCCCCCC(=O)O)C(=O)O)C(=O)N(C)[C@H](CC(=O)O)C(=O)N(C)[C@@H](Cc1ccccc1)C(N)=O [Example 34, 2-[2-[2-[[2-[2-[2-[[(4S)-4-Carboxy-4-(13-carboxytridecanoylamino)butanoyl]amino]ethoxy]ethoxy]acetyl]amino]ethoxy]ethoxy]acetyl-Asp-Phe(4-sulfomethyl)-Leu-Gly-Trp-Nle-DMeAsp-MePhe-amide] ({C14 diacid-γGlu-AEEA-AEEA}-D[Phe(4-CH2SO3H)]LGW[Nle][dNMeD][NMeF]-NH2) | EC50 ([4]; 1321-N1 cells stably expressing CCK-1R, IP1 accumulation, average of min. three replicates, read-out: EC50 (CCK-1R)): 0.21 nM |
| > 1000 | > 10000 | – | CCCC[C@H](NC(=O)[C@H](Cc1c[nH]c2ccccc12)NC(=O)CNC(=O)[C@H](CC(C)C)NC(=O)[C@H](Cc1ccc(CS(=O)(=O)O)cc1)NC(=O)[C@H](CC(=O)O)NC(=O)COCCOCCNC(=O)COCCOCCNC(=O)CC[C@H](NC(=O)CCCCCCCCCCCCCCCCCCC(=O)O)C(=O)O)C(=O)N(C)[C@H](CC(=O)O)C(=O)N(C)[C@@H](Cc1ccccc1)C(N)=O [Example 35, 2-[2-[2-[[2-[2-[2-[[(4S)-4-Carboxy-4-(19-carboxynonadecanoylamino)butanoyl]amino]ethoxy]ethoxy]acetyl]amino]ethoxy]ethoxy]acetyl-Asp-Phe(4-sulfomethyl)-Leu-Gly-Trp-Nle-DMeAsp-MePhe-amide] ({C20 diacid-γGlu-AEEA-AEEA}-D[Phe(4-CH2SO3H)]LGW[Nle][dNMeD][NMeF]-NH2) | – |
